Test system: HepG2 cells
Experiment: Apoptosis/necrosis analysis (annexin V/PI), HepG2
Type: cell-based, human
Conditions: 2.15, 4.62, or 9.25 μM, 48 h
Procedure: Cells in the exponential growth phase were seeded in 12-well plates at a density of 1 × 10^5 cells per well in 3 mL of complete culture medium. Along with the experimental groups, four control groups were included: one without labeling, one labeled only with propidium iodide (PI), one labeled only with Annexin V, and one labeled with both PI and Annexin V. After 24 h, the cells were treated with the compound at concentrations of 2.15, 4.62, 9.25, and 18.50 μM for 48 h. Following the treatment period, the supernatant from each well was transferred to cytometry tubes and centrifuged at 1100 rpm for 10 min. The remaining adhered cells were washed with 1 mL of Hanks’ solution, and 500 μL of trypsin was added to detach the cells. The trypsin action was neutralized by adding 500 μL of complete medium, and the contents (detached cells plus precentrifuged supernatant) were collected into cytometry tubes, which were then centrifuged again at 1100 rpm for 10 min. After centrifugation, the supernatant was discarded. For labeling, Annexin V binding buffer was prepared by diluting 1 mL of component C in 5 mL of distilled water. Next, a 100 μg/mL propidium iodide working solution was prepared by diluting 5 μL of the 1 mg/mL stock (component B) in 45 μL of 1× buffer. […]

CCCc1cc(/C=C/C(=O)c2ccc(C)cc2)c(OC)c(OC)c1 [compound 3, (E)-3-(2,3-Dimethoxy-5-propylphenyl)-1-(p-tolyl)-prop-2-en-1-one]
percentage of apoptotic or necrotic cells, HepG2: did not result in a significant increase

From PMC12713470, “Design and Synthesis of Novel Chalcone Derivatives Targeting Bladder and Liver Cancer: Cytotoxicity Evaluation and Preliminary Mechanistic Studies” (ACS Omega, 2025)
